This is an account of results in patent US8394630B2, “Producing a mammalian pluripotent cell population from mammalian blastomere-like stem cells (BLSCs)” (StemBios Technologies, Inc., priority 2009, dated 2013).

The experiment deals with BLSCs. The experiment can be described thus: Culturing BLSCs in medium containing RA or TGF-β to produce SBR and SBT cells. It is filed as cell-based, human. The settings on record: StemBios-003 medium, 0.1 to 20 μM RA or 1 to 40 nM TGF-β, over 2-6 weeks. The protocol:
The method for activation, purification, and expansion of BLSCs has been described in WO/2007/100845. In this example, BLSCs were purified from blood of a human subject using two methods. The isolated cells were analyzed by flow cytometry.
The purified BLSCs were cultured in StemBios-001. To produce SBR and SBT cells, BLSCs were cultured in a StemBios-002 medium for 2 weeks. Then, the BLSCs were cultured in a StemBios-003 medium containing 0.1 to 20 μM of RA or 1 to 40 nM of TGF-β for over 2˜6 weeks. […] These cells were named SBR and SBT cells respectively.

For TGF-β, the “change of morphology and sizes of cultured BLSCs” value is “gradually changed their morphology and sizes”.
